These results are taken from patent US11655241B2, “Heterocyclic compound and use thereof” (Takeda Pharmaceutical Company Limited, priority 2018, dated 2023).

The structures appear in SMILES notation.

The assay has as its target T1, human orexin type 2 receptor (Homo sapiens, UniProt O43614).
T1 construct: expressed in transfected cells
T1 sequence (O43614 1-444): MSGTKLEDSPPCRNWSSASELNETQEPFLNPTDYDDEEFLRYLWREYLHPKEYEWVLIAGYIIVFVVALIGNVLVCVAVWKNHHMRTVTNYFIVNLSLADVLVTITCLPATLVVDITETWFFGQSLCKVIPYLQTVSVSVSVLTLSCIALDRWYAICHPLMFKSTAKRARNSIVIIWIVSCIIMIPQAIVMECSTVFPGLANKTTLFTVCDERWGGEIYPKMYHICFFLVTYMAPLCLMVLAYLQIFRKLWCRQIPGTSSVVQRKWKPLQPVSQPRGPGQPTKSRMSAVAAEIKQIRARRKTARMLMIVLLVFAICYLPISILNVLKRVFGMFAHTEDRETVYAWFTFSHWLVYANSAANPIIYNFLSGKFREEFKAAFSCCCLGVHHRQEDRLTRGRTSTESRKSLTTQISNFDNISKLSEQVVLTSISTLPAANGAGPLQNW
In words: Measurement of orexin type 2 receptor agonist activity (calcium fluorescence, Fluo-4 AM, FDSS). The assay is classed as cell-based. The conditions noted are these: compound at 3 μM; CHO cells forcibly expressing human OX2 receptor; DMSO = 0%, orexin A (human) 10 nM = 100%. From the text:
Experimental Example 1: Obtainment of Cell Stably Expressing Human Orexin Type 2 Receptor (hOX2R)
To obtain a cell clone stably expressing human orexin type 2 receptor, human orexin type 2 receptor cDNA was inserted into pcDNA3.1(+) plasmid vector (Invitrogen), and a plasmid DNA for expression of human orexin type 2 receptor (pcDNA3.1(+)/hOX2R) was cloned. The plasmid DNA was introduced into CHO-dhfr cell by an electroporation method, and human orexin type 2 receptor expressing clone cells were obtained by limiting dilution method by using G418 drug resistance as a selection marker.
Experimental Example 2: Measurement of Orexin Type 2 Receptor Agonist Activity
CHO cells forcibly expressing human OX2 receptor were seeded in each well of 384 well black transparent bottom plate (BD Falcon) at 7,500 cells/well, and cultured for one day in a 5% CO2 incubator at 37° C. After removal of the medium in the cell plate, assay buffer A containing a calcium indicator (HBSS (Thermo Fisher Scientific), 20 mM HEPES (Thermo Fisher Scientific), 0.1% BSA (Wako Pure Chemical Industries, Ltd. or Sigma-Aldrich), 2.5 μg/mL Fluo-4 AM (DOJINDO Chemical), 0.08% Pluronic F127 (DOJINDO Chemical), 1.25 mM probenecid (DOJINDO Chemical)) was added at 30 μL/well. The plate was stood for 30 min in a 5% CO2 incubator at 37° C., and further stood at room temperature for 30 min. A test compound prepared by diluting with assay buffer B (HBSS, 20 mM HEPES, 0.1% BSA) was added at 10 μL/well, and the fluorescence value was measured by FDSSμCELL (Hamamatsu Photonics K.K.) every one sec for 1 min, and thereafter every two sec for 1 min 40 sec. The activity (%) of the test compound was calculated assuming that variation in the fluorescence value when DMSO was added instead of the test compound was 0%, and variation in the fluorescence value when orexin A (human) (PEPTIDE INSTITUTE, INC.) was added at the final concentration of 10 nM was 100%. The activity of each compound at the concentration of 3 μM was shown below.
Consider `COC(=O)N[C@H]1CCN(C(=O)C2CCC2)[C@H]1Cc1cccc(-c2cccc(F)c2)c1` (relative stereo) [Example 1, methyl{cis-1-(cyclobutanecarbonyl)-2-[(3′-fluoro[1,1′-biphenyl]-3-yl)methyl]pyrrolidin-3-yl}carbamate], for which the “OX2R agonist activity (3 μM, %)” value was 33%. To `O=C(N[C@H]1CCN(C(=O)C2CCC2)[C@H]1Cc1cccc(-c2cccc(F)c2)c1)C1CCCO1` (relative stereo) [Example 5, N-{cis-1-(cyclobutanecarbonyl)-2-[(3′-fluoro[1,1′-biphenyl]-3-yl)methyl]pyrrolidin-3-yl}oxolane-2-carboxamide] belongs 92%; to `O=C(CO)N[C@H]1CCN(C(=O)C2CCC2)[C@H]1Cc1cccc(-c2cccc(F)c2)c1` (relative stereo) [Example 6, N-{cis-1-(cyclobutanecarbonyl)-2-[(3′-fluoro[1,1′-biphenyl]-3-yl)methyl]pyrrolidin-3-yl}-2-hydroxyacetamide], 60%; to `CC(F)(F)C(=O)N[C@H]1CCN(C(=O)C2CCC2)[C@H]1Cc1cccc(-c2cccc(F)c2)c1` (relative stereo) [Example 8, N-{cis-1-(cyclobutanecarbonyl)-2-[(3′-fluoro [1,1′-biphenyl]-3-yl)methyl]pyrrolidin-3-yl}-2,2-difluoropropanamide], 66%. With `O=C(C1CCC1)N1CC[C@H](NC(=O)C2(F)CCC2)[C@@H]1Cc1cccc(-c2cccc(F)c2)c1` (relative stereo) [Example 10, N-{cis-1-(cyclobutanecarbonyl)-2-[(3′-fluoro[1,1′-biphenyl]-3-yl)methyl]pyrrolidin-3-yl}-1-fluorocyclobutane-1-carboxamide] the figure was 79%.

As for `COC1(C(=O)N[C@H]2CCN(C(=O)C3CCC3)[C@H]2Cc2cccc(-c3cccc(F)c3)c2)CC1` (relative stereo) [Example 11, N-{cis-1-(cyclobutanecarbonyl)-2-[(3′-fluoro[1,1′-biphenyl]-3-yl)methyl]pyrrolidin-3-yl}-1-methoxycyclopropane-1-carboxamide], the “OX2R agonist activity (3 μM, %)” value is on record as 93%. Consider `O=C(NC1CCN(C(=O)C2CCC2)C1Cc1cccc(-c2cccc(F)c2)c1)[C@@H]1CCCO1` (stereo in doubt) [Example 16, (2S)-N-{cis-1-(cyclobutanecarbonyl)-2-[(3′-fluoro[1,1′-biphenyl]-3-yl)methyl]pyrrolidin-3-yl}oxolane-2-carboxamide], for which the “OX2R agonist activity (3 μM, %)” value turned out to be 90%. To `CN(C)C(=O)C(=O)NC1CCN(C(=O)C2CCC2)C1Cc1cccc(-c2cccc(F)c2)c1` (stereo not drawn) [Example 4, N^~2^~-{cis-1-(cyclobutanecarbonyl)-2-[(3′-fluoro[1,1′-biphenyl]-3-yl)methyl]pyrrolidin-3-yl}-N^~1^~,N^~1^~- dimethylethanediamide] belongs 95%; to `CN(C)C(=O)C(=O)N[C@H]1CCN(C(=O)N2CCC2)[C@H]1Cc1csc(-c2cccc(F)c2)n1` [Example 19, N^~2^~-[(2S,3S)-1-(azetidine-1-carbonyl)-2-{[2-(3-fluorophenyl)-1,3-thiazol-4-yl]methyl}pyrrolidin-3-yl]-N^~1,N^~1^~- dimethylethanediamide], 89%.

Regarding `CN(C)C(=O)C(=O)N[C@H]1CCN(C(=O)C2CCC2)[C@H]1Cc1csc(-c2cccc(F)c2)n1` [Example 20, N^~2^~-[(2S,3S)-1-(cyclobutanecarbonyl)-2-{[2-(3-fluorophenyl)-1,3-thiazol-4-yl]methyl}pyrrolidin-3-yl]-N^~1,N^~1^~- dimethylethanediamide], the “OX2R agonist activity (3 μM, %)” value was found to be 82%. In the case of `O=C(N[C@H]1CCN(C(=O)N2CCC2)[C@H]1Cc1cccc(-c2cccc(F)c2)n1)[C@@H]1CCCO1` [Example 21, (2S)-N-[(2S,3S)-1-(azetidine-1-carbonyl)-2-{[6-(3-fluorophenyl)pyridin-2-yl]methyl]pyrrolidin-3-yl]oxolane-2-carboxamide], the “OX2R agonist activity (3 μM, %)” value came out at 59%.
